Experimental data taken from PubChem BioAssay AID1259407 (Chemical Carcinogenesis Research Information System (CCRIS), 2018).
Calls of active or inactive are those of the source. No rule for the calls is given here.

System: CCRIS mutagenicity, Ames/micronucleus/aberration tests
Test: CCRIS mutagenicity studies
[1] = Test System: AMES SALMONELLA TYPHIMURIUM, Strain/Indicator: TA100, Metabolic Activation: NONE, Method: PREINCUBATION
[2] = Test System: AMES SALMONELLA TYPHIMURIUM, Strain/Indicator: TA100, Metabolic Activation: RAT, LIVER, S-9, AROCLOR 1254, Method: PREINCUBATION
[3] = Test System: AMES SALMONELLA TYPHIMURIUM, Strain/Indicator: TA98, Metabolic Activation: NONE, Method: PREINCUBATION
[4] = Test System: AMES SALMONELLA TYPHIMURIUM, Strain/Indicator: TA1535, Metabolic Activation: NONE, Method: PREINCUBATION
[5] = Test System: AMES SALMONELLA TYPHIMURIUM, Strain/Indicator: TA1537, Metabolic Activation: NONE, Method: PREINCUBATION
[6] = Test System: AMES SALMONELLA TYPHIMURIUM, Strain/Indicator: TA98, Metabolic Activation: RAT, LIVER, S-9, AROCLOR 1254, Method: PREINCUBATION
[7] = Test System: AMES SALMONELLA TYPHIMURIUM, Strain/Indicator: TA98, Metabolic Activation: NONE, Method: STANDARD PLATE
[8] = Test System: AMES SALMONELLA TYPHIMURIUM, Strain/Indicator: TA100, Metabolic Activation: NONE, Method: STANDARD PLATE
[9] = Test System: AMES SALMONELLA TYPHIMURIUM, Strain/Indicator: TA1535, Metabolic Activation: NONE, Method: STANDARD PLATE
[10] = Test System: AMES SALMONELLA TYPHIMURIUM, Strain/Indicator: TA1537, Metabolic Activation: NONE, Method: STANDARD PLATE
[11] = Test System: AMES SALMONELLA TYPHIMURIUM, Strain/Indicator: TA1538, Metabolic Activation: NONE, Method: STANDARD PLATE
[12] = Test System: AMES SALMONELLA TYPHIMURIUM, Strain/Indicator: TA98, Metabolic Activation: RAT, LIVER, S-9, AROCLOR 1254, Method: STANDARD PLATE
[13] = Test System: AMES SALMONELLA TYPHIMURIUM, Strain/Indicator: TA100, Metabolic Activation: RAT, LIVER, S-9, AROCLOR 1254, Method: STANDARD PLATE

## CN(C)c1ccc(/C=C/C=O)cc1
[1]
  mutagenic call: inactive; negative
[2]
  mutagenic call: inactive; negative

## COC(C)CCO (stereo unspecified)
[3]
  mutagenic call: inactive; negative
Test System: AMES SALMONELLA TYPHIMURIUM, Strain/Indicator: TA98, Metabolic Activation: RAT LIVER S-9, PHENOBARBITAL AND BETA-NAPHTHOFLAVONE, Method: PREINCUBATION
  mutagenic call: inactive; negative
[1]
  mutagenic call: inactive; negative
Test System: AMES SALMONELLA TYPHIMURIUM, Strain/Indicator: TA100, Metabolic Activation: RAT LIVER S-9, PHENOBARBITAL AND BETA-NAPHTHOFLAVONE, Method: PREINCUBATION
  mutagenic call: inactive; negative
[4]
  mutagenic call: inactive; negative
Test System: AMES SALMONELLA TYPHIMURIUM, Strain/Indicator: TA1535, Metabolic Activation: RAT LIVER S-9, PHENOBARBITAL AND BETA-NAPHTHOFLAVONE, Method: PREINCUBATION
  mutagenic call: inactive; negative
[5]
  mutagenic call: inactive; negative
Test System: AMES SALMONELLA TYPHIMURIUM, Strain/Indicator: TA1537, Metabolic Activation: RAT LIVER S-9, PHENOBARBITAL AND BETA-NAPHTHOFLAVONE, Method: PREINCUBATION
  mutagenic call: inactive; negative
Test System: E.COLI, Strain/Indicator: WP2UVRA/PKM101, Metabolic Activation: NONE, Method: PREINCUBATION
  mutagenic call: inactive; negative
Test System: E.COLI, Strain/Indicator: WP2UVRA/PKM101, Metabolic Activation: RAT LIVER S-9, PHENOBARBITAL AND BETA-NAPHTHOFLAVONE, Method: PREINCUBATION
  mutagenic call: inactive; negative

## C[C@H]1SC[C@@H](C(=O)N[C@@H](Cc2cnc[nH]2)C(=O)N2CCC[C@H]2C(N)=O)NC1=O
[3]
  mutagenic call: inactive; negative
[6]
  mutagenic call: inactive; negative
[1]
  mutagenic call: inactive; negative
[2]
  mutagenic call: inactive; negative
[4]
  mutagenic call: inactive; negative
Test System: AMES SALMONELLA TYPHIMURIUM, Strain/Indicator: TA1535, Metabolic Activation: RAT, LIVER, S-9, AROCLOR 1254, Method: PREINCUBATION
  mutagenic call: inactive; negative
[5]
  mutagenic call: inactive; negative
Test System: AMES SALMONELLA TYPHIMURIUM, Strain/Indicator: TA1537, Metabolic Activation: RAT, LIVER, S-9, AROCLOR 1254, Method: PREINCUBATION
  mutagenic call: inactive; negative
Test System: E. COLI, Strain/Indicator: WP2 UVRA, Metabolic Activation: NONE, Method: PREINCUBATION
  mutagenic call: inactive; negative
Test System: E. COLI, Strain/Indicator: WP2 UVRA, Metabolic Activation: RAT, LIVER, S-9, AROCLOR 1254, Method: PREINCUBATION
  mutagenic call: inactive; negative

## C=C[Si](C)(Cl)Cl
Test System: AMES SALMONELLA TYPHIMURIUM, Strain/Indicator: TA98, Metabolic Activation: HAMSTER, LIVER, S-9, AROCLOR 1254 (10%), Method: STANDARD PLATE
  mutagenic call: inactive; negative
[7]
  mutagenic call: inactive; negative
Test System: AMES SALMONELLA TYPHIMURIUM, Strain/Indicator: TA98, Metabolic Activation: RAT, LIVER, S-9, AROCLOR 1254 (10%), Method: STANDARD PLATE
  mutagenic call: inactive; negative
Test System: AMES SALMONELLA TYPHIMURIUM, Strain/Indicator: TA100, Metabolic Activation: HAMSTER, LIVER, S-9, AROCLOR 1254 (10%), Method: STANDARD PLATE
  mutagenic call: inactive; negative
[8]
  mutagenic call: inactive; negative
Test System: AMES SALMONELLA TYPHIMURIUM, Strain/Indicator: TA100, Metabolic Activation: RAT, LIVER, S-9, AROCLOR 1254 (10%), Method: STANDARD PLATE
  mutagenic call: inactive; negative
Test System: AMES SALMONELLA TYPHIMURIUM, Strain/Indicator: TA1535, Metabolic Activation: HAMSTER, LIVER, S-9, AROCLOR 1254 (10%), Method: STANDARD PLATE
  mutagenic call: active; positive
[9]
  mutagenic call: inactive; negative
Test System: AMES SALMONELLA TYPHIMURIUM, Strain/Indicator: TA1535, Metabolic Activation: RAT, LIVER, S-9, AROCLOR 1254 (10%), Method: STANDARD PLATE
  mutagenic call: inactive; negative
Test System: AMES SALMONELLA TYPHIMURIUM, Strain/Indicator: TA1537, Metabolic Activation: HAMSTER, LIVER, S-9, AROCLOR 1254 (10%), Method: STANDARD PLATE
  mutagenic call: inactive; negative
[10]
  mutagenic call: inactive; negative
Test System: AMES SALMONELLA TYPHIMURIUM, Strain/Indicator: TA1537, Metabolic Activation: RAT, LIVER, S-9, AROCLOR 1254 (10%), Method: STANDARD PLATE
  mutagenic call: inactive; negative
Test System: AMES SALMONELLA TYPHIMURIUM, Strain/Indicator: TA1538, Metabolic Activation: HAMSTER, LIVER, S-9, AROCLOR 1254 (10%), Method: STANDARD PLATE
  mutagenic call: inactive; negative
[11]
  mutagenic call: inactive; negative
Test System: AMES SALMONELLA TYPHIMURIUM, Strain/Indicator: TA1538, Metabolic Activation: RAT, LIVER, S-9, AROCLOR 1254 (10%), Method: STANDARD PLATE
  mutagenic call: inactive; negative
Test System: MOUSE LYMPHOMA, Strain/Indicator: L5178Y (TK+/TK-), Metabolic Activation: NONE, Method: SUSPENSION/PLATE
  mutagenic call: inactive; negative. reevaluation of results: negative
Test System: MOUSE LYMPHOMA, Strain/Indicator: L5178Y (TK+/TK-), Metabolic Activation: RAT, LIVER, S-9, AROCLOR 1254, Method: SUSPENSION/PLATE
  mutagenic call: inactive; negative. reevaluation of results: inconclusive

## OCCNc1ccc(N=Nc2ccc(N(CCO)CCO)cc2)cc1
Test System: AMES SALMONELLA TYPHIMURIUM, Strain/Indicator: TA98, Metabolic Activation: HAMSTER, LIVER, S-9, AROCLOR 1254, Method: STANDARD PLATE
  mutagenic call: inactive; negative
[7]
  mutagenic call: inactive; negative
[6]
  mutagenic call: inactive; negative
[12]
  mutagenic call: inactive; negative
[8]
  mutagenic call: inactive; negative
[13]
  mutagenic call: inactive; negative
[9]
  mutagenic call: inactive; negative
Test System: AMES SALMONELLA TYPHIMURIUM, Strain/Indicator: TA1535, Metabolic Activation: RAT, LIVER, S-9, AROCLOR 1254, Method: STANDARD PLATE
  mutagenic call: inactive; negative
[10]
  mutagenic call: inactive; negative
Test System: AMES SALMONELLA TYPHIMURIUM, Strain/Indicator: TA1537, Metabolic Activation: RAT, LIVER, S-9, AROCLOR 1254, Method: STANDARD PLATE
  mutagenic call: inactive; negative
[11]
  mutagenic call: inactive; negative
Test System: AMES SALMONELLA TYPHIMURIUM, Strain/Indicator: TA1538, Metabolic Activation: RAT, LIVER, S-9, AROCLOR 1254, Method: STANDARD PLATE
  mutagenic call: inactive; negative

## CCN(C(C)=O)c1ccc2c(c1)Cc1ccccc1-2
[12]
  mutagenic call: active; positive

## Cc1ccc2c(=O)c3cccc4ccc1c2c43
[13]
  mutagenic call: active; positive

## Cc1ccc(N=Nc2c(O)ccc3ccccc23)c(S(=O)(=O)O)c1
[7]
  mutagenic call: inactive; negative
Test System: AMES SALMONELLA TYPHIMURIUM, Strain/Indicator: TA98, Metabolic Activation: RAT, LIVER, S-9, Method: STANDARD PLATE
  mutagenic call: inactive; negative
[8]
  mutagenic call: inactive; negative
Test System: AMES SALMONELLA TYPHIMURIUM, Strain/Indicator: TA100, Metabolic Activation: RAT, LIVER, S-9, Method: STANDARD PLATE
  mutagenic call: inactive; negative

## COc1ccc(CN2C3c4ccccc4-c4ccccc4C32)cc1 (stereo unspecified)
[8]
  mutagenic call: active; positive

## O=CC(Br)CBr (stereo unspecified)
[1]
  mutagenic call: active; positive
Test System: AMES SALMONELLA TYPHIMURIUM, Strain/Indicator: TA100, Metabolic Activation: RAT, LIVER, MICROSOMES, Method: PREINCUBATION
  mutagenic call: active; positive
Test System: UDS RAT HEPATOCYTES, Strain/Indicator: THY INCORP, Metabolic Activation: NONE
  mutagenic call: inactive; negative
